The text below walks through data of the supplement of paper PMC10949913.

Common to all, as to assay: area under concentration-response curve (viability) (AUC (a.u.)); higher = less active
What all share (settings): 48 h

For one test, the system named is CU-ACC1. In short, it runs like this:
(§1)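 Luminescence from CellTiter-Glo, read after 48 h, measured three adrenocortical carcinoma cell lines treated in 1,536-well plates with library compounds at 11 concentrations. Values were normalised per plate to vehicle and empty-well controls. The AC50 and area under the curve come from fitted concentration-response curves in inhibitory or non-responding classes only.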

The next test concerns NCI-H295R. In short, it runs like this: as §1
A further test relates to CU-ACC2. In short, it runs like this: as §1

Consider `CC(C)[C@H](O)C(=O)N[C@@H](C)C(=O)N[C@@H]1C(=O)N(C)CCc2ccccc21`, for which the “area under concentration-response curve” value was 522 in the test on CU-ACC1, 575 in the test on NCI-H295R and 577 in the test with CU-ACC2.
Taken in the same sequence, the figures for `COc1cc2ncnc(Nc3cc(Br)c(O)c(Br)c3)c2cc1OC` were 523, 581 and 650.
On to `CNC(=O)c1ccc(N2C(=S)N(c3ccc(C#N)c(C(F)(F)F)c3)C(=O)C23CCC3)cc1F`, for which the “area under concentration-response curve” value was 488 in the test with CU-ACC1, 534 in the test on NCI-H295R and 500 in the test with CU-ACC2.
Turning to `O=C(O)c1cccc(-c2noc(-c3ccccc3F)n2)c1`, the results for the “area under concentration-response curve” value in the test with CU-ACC1, in the test with NCI-H295R and in the test on CU-ACC2 were 477, 451 and 559, respectively.
As to `Cc1cc(SCc2sc(-c3ccc(C(F)(F)F)cc3)nc2C)ccc1OCC(=O)O`, the “area under concentration-response curve” value amounted to 517 in the test on CU-ACC1, 540 with NCI-H295R and 608 in the test with CU-ACC2.
As to `C[C@]12CC[C@@H]3c4ccc(O)cc4C[C@@H](CCCCCCCCC[S+]([O-])CCCC(F)(F)C(F)(F)F)[C@H]3[C@@H]1CC[C@@H]2O` (some centres not stated), the figures for the “area under concentration-response curve” value in the test on CU-ACC1, with NCI-H295R and in the test on CU-ACC2 were 391, 530 and 564, respectively.
On to `CC(S)C(=O)NCC(=O)O` (configuration not stated), for which the figures for the “area under concentration-response curve” value in the test with CU-ACC1, with NCI-H295R and with CU-ACC2 were 547, 563 and 632, respectively.
Taken in the same sequence, the figures for `C[S+](=O)([O-])c1ccc(C(=O)Nc2ccc(Cl)c(-c3ccccn3)c2)c(Cl)c1` were 544, 591 and 674.
For `CN(CC1=CC2=C(N\C(=N/C2=O)C)C=C1)C3=CC=C(S3)C(=O)N[C@@H](CCC(O)=O)C(O)=O`, the “area under concentration-response curve” value worked out at 503 in the test on CU-ACC1, 532 in the test on NCI-H295R and 602 with CU-ACC2.
As to `O=C1CCC(N2C(=O)c3ccccc3C2=O)C(=O)N1` (configuration not stated), the entries for the “area under concentration-response curve” value with CU-ACC1, in the test on NCI-H295R and in the test on CU-ACC2 were 535, 538 and 602, respectively.
`CCCn1c(=O)c2[nH]c(-c3cnn(Cc4cccc(C(F)(F)F)c4)c3)nc2n(CC)c1=O`: the “area under concentration-response curve” value in the test on CU-ACC1 is 509; with NCI-H295R it was 584; in the test on CU-ACC2 it was 633.
Consider `Cn1c(=O)c2c(ncn2C)n(C)c1=O`, for which the “area under concentration-response curve” value came to 479 in the test with CU-ACC1, 498 with NCI-H295R and 533 in the test with CU-ACC2.
On to `CC(C)n1cc(-c2ccc3c(c2)N(C)CC3)c2c(N[S+](=O)([O-])c3ccn(C)n3)ccnc21`, for which the “area under concentration-response curve” value was determined as 516 in the test with CU-ACC1, 568 with NCI-H295R and 638 in the test with CU-ACC2.
The corresponding values for `N#C/C(=C(/N)Sc1ccc(N)cc1)c1ccccc1C(F)(F)F` are 533, 585 and 574.
As to `O=C([C@@H](Cc1cccc(C(F)(F)F)c1)N[S+](=O)([O-])c1cc(F)c2c(c1)CCNC2)N1CCCC1`, the “area under concentration-response curve” value with CU-ACC1 was found to be 528; with NCI-H295R, 535; with CU-ACC2 it was 515.
Turning to `C[N+](C)(C)CC(=O)O`, the figures for the “area under concentration-response curve” value in the test on CU-ACC1, in the test on NCI-H295R and in the test with CU-ACC2 were 501, 560 and 611, respectively.
As to `Nc1ncnc2c1C(=O)N(c1ccc([C@H]3CC[C@H](CC(=O)O)CC3)cc1)CCO2`, the “area under concentration-response curve” value in the test with CU-ACC1 was determined as 497; in the test on NCI-H295R, 509; in the test on CU-ACC2 it was 554.
Regarding `CCN1C(=O)\C(=C/C2=C1N=C(NC3=CC=C(N4CCNCC4)C(=C3)F)N=C2)C5=CC=C(Cl)C=C5Cl`, the results for the “area under concentration-response curve” value in the test with CU-ACC1, with NCI-H295R and with CU-ACC2 were 518, 537 and 580, respectively.
Taken in the same sequence, the figures for `N[S+](=O)([O-])c1cc(Cl)c(Cl)c([S+](N)(=O)[O-])c1` were 459, 524 and 528.
Consider `C#CCN[C@@H]1CCc2ccccc21`, for which the “area under concentration-response curve” value in the test on CU-ACC1 was found to be 565; with NCI-H295R, 590; in the test with CU-ACC2, 642.
`CO[C@H]1C[C@@H]2CC[C@@H](C)[C@@](O)(O2)C(=O)C(=O)N2CCCC[C@H]2C(=O)O[C@H]([C@H](C)C[C@@H]2CC[C@@H](OC(=O)C(C)(CO)CO)[C@H](OC)C2)CC(=O)[C@H](C)/C=C(\C)[C@@H](O)[C@@H](OC)C(=O)[C@H](C)C[C@H](C)/C=C/C=C/C=C/1C`: the figures for the “area under concentration-response curve” value in the test on CU-ACC1, with NCI-H295R and with CU-ACC2 were 488, 530 and 483, respectively.
On to `C[N+](C)([O-])CCNc1ccc(NCC[N+](C)(C)[O-])c2c1C(=O)c1c(O)ccc(O)c1C2=O`, for which the “area under concentration-response curve” value was found to be 505 in the test with CU-ACC1, 496 in the test with NCI-H295R and 540 in the test with CU-ACC2.
The corresponding values for `Cc1cc(C)c2c(c1)[C@@H](N(Cc1cc(C(F)(F)F)cc(C(F)(F)F)c1)c1nnn(C)n1)CCCN2C[C@H]1CC[C@H](C(=O)O)CC1` are 489, 529 and 582.
`Cn1cnc(N)c2ncnc1-2`: the figures for the “area under concentration-response curve” value with CU-ACC1, in the test with NCI-H295R and in the test with CU-ACC2 were 438, 448 and 467, respectively.
In the case of `CC(=O)O[C@H]1C[C@@H]2CC[C@@H]3[C@H](CC[C@@]4(C)[C@H]3C[C@H]([N+]3(C)CCCCC3)[C@@H]4OC(C)=O)[C@@]2(C)C[C@@H]1N1CCCCC1.[Br-]`, the figures for the “area under concentration-response curve” value in the test on CU-ACC1, in the test on NCI-H295R and in the test on CU-ACC2 were 562, 610 and 632, respectively.
On to `O=C(NCC(=O)N1CCCC1)Nc1ccc2cnccc2c1`, for which the “area under concentration-response curve” value amounted to 565 in the test on CU-ACC1, 569 in the test with NCI-H295R and 633 with CU-ACC2.
Regarding `CC(=O)C1CCC2C3CC\C4=C\C(=O)CCC4(C)C3CCC12C` (configuration not stated), the “area under concentration-response curve” value in the test with CU-ACC1 was 548; in the test with NCI-H295R, 607; in the test on CU-ACC2, 645.
Regarding `Cn1cc(-c2ccc3nnc(Sc4ccc5ncccc5c4)n3n2)cn1`, the “area under concentration-response curve” value with CU-ACC1 was 516; in the test on NCI-H295R, 525; in the test with CU-ACC2, 447.
Take `Nc1n[nH]c2nnc(-c3c(-c4ccccc4)nn4ccccc34)cc12`: the “area under concentration-response curve” value in the test on CU-ACC1 was 489; in the test with NCI-H295R, 515; with CU-ACC2, 595.
